The values that follow come from article PMC10979003, “Development and crystal structures of a potent second-generation dual degrader of BCL-2 and BCL-xL” (Nature Communications, 2024).

One assay deals with T1, BCL-xL D107A (Homo sapiens, UniProt Q07817, D107A).
T1 construct: BCL-xL (aa 2-212) and BCL-2 (aa 1-207) transformed cells were grown in LB broth; SMT3 (N); made in house; host or cells: E. coli BL21 (DE3) codon plus
Briefly: AlphaScreen binary binding, BCL-xL D107A. The note with it: mean ± s.d., n=3. How it is done:
(§1) To test the binary/ternary binding affinities of compounds to BCL-2/BCL-xL, AlphaScreen displacement binding assay was performed to test the capabilities of testing compounds to displace a Biotin-tagged Bim (Biotin-[…]) or Bad (Biotin-[…]) from BCL-2 or BCL-xL for BCL-2 and BCL-xL binding affinities, respectively. All reagents were diluted in assay buffer of 25 mM HEPES, pH 7.5, 150 mM NaCl, 0.1% BSA, and 0.005% tween 20 prior incubation. To a 96-well PCR plate (VWR, Cat. No. 82006-636) was added 10 μL Biotin-tagged Bim (15 nM for WT or 50 nM for mutants) or Bad (15 nM for WT or 50 nM for mutants), 10 μL series diluted compounds solution (2 or 3 or 4× dilution), and 10 μL self-made 6×His tagged BCL-2 WT or mutants (25 nM WT or 50 nM mutants) or 10 μL self-made BCL-xL WT and mutants (10 nM WT or 50 nM mutants). […] The luminescence signal was detected on a Biotek’s Synergy Neo2 multimode plate reader installed with an AphaScreen filter cube. The Ki values of each compounds were calculated by fitting data into the “Binding-competitive, One site-Fit Ki” function in GraphPad Prism (9.2.0) based on concentrations of Biotin–peptide used and experimentally determined Kd values of each 6×His protein &&&and Biotin–Peptide pair.
Background: Alpha assays give light when donor and acceptor beads are brought close together.

The next assay deals with T2, BCL-xL R103A/D107A (Homo sapiens, UniProt Q07817, D107A/R103A).
T2 construct: BCL-xL (aa 2-212) and BCL-2 (aa 1-207) transformed cells were grown in LB broth; SMT3 (N); made in house; host or cells: E. coli BL21 (DE3) codon plus
Briefly: AlphaScreen binary binding, BCL-xL R103A/D107A. To be noted: mean ± s.d., n=3. How it is done: as §1

A further assay deals with T3, BCL-xL R103A/D107A/S110A (Homo sapiens, UniProt Q07817, D107A/R103A/S110A).
T3 construct: BCL-xL (aa 2-212) and BCL-2 (aa 1-207) transformed cells were grown in LB broth; SMT3 (N); made in house; host or cells: E. coli BL21 (DE3) codon plus
Kind of assay: AlphaScreen binary binding, BCL-xL R103A/D107A/S110A. The note with it: mean ± s.d., n=3. How it is done: as §1

A further assay addresses T4, HiBiT-BCL-2/HaloTag-VHL (Homo sapiens, UniProt P10415+P40337).
T4 construct: full-length BCL-xL and BCL-2 were expressed in cells for the nanoBRET assay; host or cells: 293T
Briefly: NanoBRET ternary complex formation assay in 293T cells, HiBiT-BCL-2 and HaloTag-VHL. The format is cell-based. To be noted: 4 h, MG132 pretreatment. How it is done:
Plasmids HaloTag-VHL (Cat. No. CS1679C155) and CMV HiBiT (Cat. No. CS1956B03) were purchased from Promega. HiBiT-BCL-xL and HiBiT-BCL-2 were constructed previously. 293T cells (8 × 10^5 cells/well in a 6-well plate) were transfected with Lipofectamine (Life Technologies) and 1 μg HaloTag-VHL, 20 ng HiBiT-BCL-xL and 20 ng LgBiT or 1 μg HaloTag-VHL, 20 ng HiBiT-BCL-2 and 20 ng LgBiT. After 48 h, 2 × 10^4 transfected cells were seeded into each well of white 96-well tissue culture plates in Gibco™ Opti-MEM™ I Reduced Serum Medium, No Phenol Red (Cat. No. 11-058-021, Fisher) containing 4% FBS with or without HaloTag NanoBRET 618 Ligand (Cat. No. PRN1662, Promega) and incubated overnight at 37 °C, 5% CO2. […] After treatment, NanoBRET Nano-Glo Substrate (cat. no. N1662, Promega) was added into the medium, and the contents were mixed by shaking the plate for 30 s before measuring donor and acceptor signals on Biotek plate reader. Dual-filtered luminescence was collected with a 450/50 nm bandpass filter (donor, NanoBiT-BCL-XL protein or NanoBiT-BCL-2 protein) and a 610-nm longpass filter (acceptor, HaloTag NanoBRET ligand) using an integration time of 0.5 s. mBRET ratios were calculated following the NanoBRET™ Nano-Glo® Detection System (Cat. No. N1662, Promega).
For orientation: BRET reads energy transfer from a luciferase to a nearby fluorophore.

For another assay, the target named is T5, BCL-2 R110A E114A (Homo sapiens, UniProt P10415, E114A/R110A).
T5 construct: BCL-xL (aa 2-212) and BCL-2 (aa 1-207) transformed cells were grown in LB broth; made in house; host or cells: E. coli BL21 (DE3) codon plus
Kind of assay: AlphaScreen binary binding, BCL-2 R110A E114A. To be noted: mean ± s.d., n=3. How it is done: as §1

For the next assay, the target named is T6, BCL-2 R110A E114K (Homo sapiens, UniProt P10415, E114K/R110A).
T6 construct: BCL-xL (aa 2-212) and BCL-2 (aa 1-207) transformed cells were grown in LB broth; made in house; host or cells: E. coli BL21 (DE3) codon plus
Briefly: AlphaScreen binary binding, BCL-2 R110A E114K. The note with it: mean ± s.d., n=3. How it is done: as §1

In another assay the target is T7, BCL-2 E114A (Homo sapiens, UniProt P10415+P40337, E114A).
T7 construct: BCL-xL (aa 2-212) and BCL-2 (aa 1-207) transformed cells were grown in LB broth; VHL (aa 54-213) and ElonginBC were co-transformed (VCB); 6xHis (TEV-cleavable) (N, cleaved yes); made in house; host or cells: E. coli BL21 (DE3) codon plus (BCL-2, VCB); Trichoplusia ni High-Five insect cells (Cullin2-Rbx1)
Kind of assay: Polyubiquitin chain formation assay, BCL-2 E114A. The note with it: 10 μM WH244, 1 h, Fig. 5d. The assay is classed as biochemical. How it is done:
WT BCL-xL/BCL-2 (5 μM) were ubiquitinated in the presence of E1 SpUba1 (0.1 μM), E2, UbcH5c (1 μM) and Cdc34 (1 μM), ubiquitin (75 μM), VHL-Elongin C-Elongin B complex (0.35 μM), neddylated Cullin2-Rbx1 complex (0.35 μM) and 753b or WH244 (10 μM) at 37 °C in a buffer of 50 mM HEPES, pH 7.5, 10 mM MgCl2, 100 mM NaCl, 2 mM ATP, and 0.5 mM DTT. The reaction mixture was incubated for indicated time points (Supplementary Fig. 4a, b, d, e, g, h) and was terminated by the addition of 1× reducing SDS-PAGE loading buffer. The polyUb chain formation was assessed using immunoblotting as described earlier. For polyUb chain formation on mutant proteins used in this study, the above protocol was used with a fixed time-point of 1 h.

Another assay concerns human platelets. Kind of assay: Potency against human platelets in vitro. The format is cell-based.

Usually Ki stands for the equilibrium dissociation constant of an inhibitor or competing ligand from its target.

T3 sequence (Q07817 2-212 R103A/D107A/S110A): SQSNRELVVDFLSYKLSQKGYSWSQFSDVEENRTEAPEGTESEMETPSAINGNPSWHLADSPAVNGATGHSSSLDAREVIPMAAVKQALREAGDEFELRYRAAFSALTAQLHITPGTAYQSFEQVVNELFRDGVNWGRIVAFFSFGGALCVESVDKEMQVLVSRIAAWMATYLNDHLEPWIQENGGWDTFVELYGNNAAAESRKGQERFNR
T2 sequence (Q07817 2-212 R103A/D107A): as the sequence (Q07817 2-212 R103A/D107A/S110A) above, with A109S counted along it
T6 sequence (P10415 1-207 R110A/E114K): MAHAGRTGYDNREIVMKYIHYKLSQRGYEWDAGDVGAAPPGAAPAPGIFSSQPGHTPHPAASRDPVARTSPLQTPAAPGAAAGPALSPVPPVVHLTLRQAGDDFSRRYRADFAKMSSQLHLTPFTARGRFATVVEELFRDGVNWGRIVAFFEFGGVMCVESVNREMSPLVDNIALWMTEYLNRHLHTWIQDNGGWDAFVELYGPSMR
T4 sequence (P10415 whole entry): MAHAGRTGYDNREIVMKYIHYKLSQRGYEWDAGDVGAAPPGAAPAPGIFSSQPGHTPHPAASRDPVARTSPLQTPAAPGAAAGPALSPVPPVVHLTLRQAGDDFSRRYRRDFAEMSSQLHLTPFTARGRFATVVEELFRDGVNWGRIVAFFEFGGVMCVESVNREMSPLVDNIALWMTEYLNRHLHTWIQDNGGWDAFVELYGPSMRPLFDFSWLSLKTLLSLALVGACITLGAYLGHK
T4 sequence (P40337 whole entry): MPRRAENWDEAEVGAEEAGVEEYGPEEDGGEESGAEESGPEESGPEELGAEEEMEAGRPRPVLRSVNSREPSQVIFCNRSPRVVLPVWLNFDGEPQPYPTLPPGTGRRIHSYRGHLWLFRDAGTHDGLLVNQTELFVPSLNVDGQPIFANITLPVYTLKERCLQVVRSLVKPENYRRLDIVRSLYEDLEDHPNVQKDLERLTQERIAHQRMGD
T4 sequence (Q15370 whole entry, further chain): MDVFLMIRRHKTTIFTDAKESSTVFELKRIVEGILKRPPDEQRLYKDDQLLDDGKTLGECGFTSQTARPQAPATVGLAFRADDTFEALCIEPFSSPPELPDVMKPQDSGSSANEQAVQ
T4 sequence (Q15369 whole entry, further chain): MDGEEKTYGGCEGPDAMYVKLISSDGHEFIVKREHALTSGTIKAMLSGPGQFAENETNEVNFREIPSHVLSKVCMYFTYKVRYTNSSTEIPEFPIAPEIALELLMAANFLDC
T5 sequence (P10415 1-207 R110A/E114A): as the sequence (P10415 1-207 R110A/E114K) above, with K114A counted along it
T1 sequence (Q07817 2-212 D107A): as the sequence (Q07817 2-212 R103A/D107A/S110A) above, with A102R, A109S counted along it

Turning to `Cc1ncsc1-c1ccc(C(C)NC(=O)C2CC(O)CN2C(=O)C(NC(=O)CCCCCCC(=O)N2CCN(CC3(C)CCC(c4ccc(Cl)cc4)=C(CN4CCN(c5ccc(C(=O)NS(=O)(=O)c6ccc(NC(CCN7CCOCC7)CSc7ccccc7)c(S(=O)(=O)C(F)(F)F)c6)cc5)CC4)C3)CC2)C(C)(C)C)cc1` (centres unmarked) [753b], the figures for the Ki on BCL-xL D107A, on BCL-xL R103A/D107A and on BCL-xL R103A/D107A/S110A were 30.3 ± 4.5 nM, 36.7 ± 3 nM and 18.4 ± 2.3 nM, respectively.

For `Cc1ncsc1-c1ccc([C@H](C)NC(=O)[C@@H]2C[C@@H](O)CN2C(=O)[C@@H](NC(=O)CN2CCN(CC(=O)N3CCN(C[C@]4(C)CCC(c5ccc(Cl)cc5)=C(CN5CCN(c6ccc(C(=O)NS(=O)(=O)c7ccc(N[C@H](CCN8C[C@@H]9C[C@H]8CO9)CSc8ccccc8)c(S(=O)(=O)C(F)(F)F)c7)cc6)CC5)C4)CC3)CC2)C(C)(C)C)cc1` [WH244], at HiBiT-BCL-2/HaloTag-VHL, the “Cellular ternary complex formation with BCL-2 (comparison)” value is on record as “modestly better than 753b”. In addition, the Ki at BCL-2 R110A E114A came out at 5.8 ± 0.6 nM; at BCL-2 R110A E114K, 7 ± 0.9 nM. At BCL-2 E114A, the “PolyUb chain formation retained by E114A, share of the WT activity” value is 10-12%. Also, in the assay on human platelets, the “Increase in therapeutic index compared to ABT263” value is reported as “more than 100 fold”.
